How the values were obtained:
Salmonella typhimurium = test: Minimal inhibitory concentration test; assay type: cell-based; settings: Gram-negative bacteria
Description: (§1) Antimicrobial activity of the peptide of the invention was measured by its minimal inhibitory concentration against various test microorganisms (see: Table 1).
(§2) On the other hand, comparison of the antimicrobial activity of the peptide with a commercially available Magainin 2 (Sigma, USA) was followed and summarized in Table 2 below.

Staphylococcus aureus = test: Minimal inhibitory concentration test; assay type: cell-based; settings: Gram-positive bacteria
Description: as §1, §2

What does the source list for Magainin 2?
Minimal inhibitory concentration (Salmonella typhimurium): 25 mg/mL; Minimal inhibitory concentration (Staphylococcus aureus): 13 mg/mL

Source: patent US5936063A, “Antimicrobial peptide isolated from Bufo bufo gargarizans” (priority 1998, dated 1999)
